Biological target: T1, VMAT-2 (Rattus norvegicus, UniProt Q01827)
T1 construct: Novascreen Biosciences Corporation (contract assay provider) protocol Cat. No. 100-0751
Test: VMAT-2 binding affinity measurement (Novascreen protocol Cat. No. 100-0751)
Conditions: for Ki: VMAT-2 binding affinity; for binding affinity for VMAT-2 (in words): relative to a DTBZ control
Method: VMAT-2 binding affinity measurements were carried out by Novascreen Biosciences Corporation (Hanover, Md., USA) using protocol Cat. No. 100-0751. Novascreen, Inc. is a commercial provider of biological assays for the pharmaceutical industry.

T1 sequence (Q01827 whole entry): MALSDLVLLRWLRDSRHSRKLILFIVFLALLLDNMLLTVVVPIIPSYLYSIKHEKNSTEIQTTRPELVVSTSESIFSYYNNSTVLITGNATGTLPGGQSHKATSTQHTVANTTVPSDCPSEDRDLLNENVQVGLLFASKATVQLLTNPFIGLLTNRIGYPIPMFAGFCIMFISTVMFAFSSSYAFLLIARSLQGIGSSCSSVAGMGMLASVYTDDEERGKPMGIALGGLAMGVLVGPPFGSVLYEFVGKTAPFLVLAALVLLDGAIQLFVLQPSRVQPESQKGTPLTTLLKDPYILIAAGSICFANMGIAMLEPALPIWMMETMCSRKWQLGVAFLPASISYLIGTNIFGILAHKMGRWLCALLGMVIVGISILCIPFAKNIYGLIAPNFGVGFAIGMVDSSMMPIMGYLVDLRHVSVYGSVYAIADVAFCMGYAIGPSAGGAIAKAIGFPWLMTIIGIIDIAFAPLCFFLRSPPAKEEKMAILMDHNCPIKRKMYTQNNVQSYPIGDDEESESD

Ki | binding affinity for VMAT-2 (in words) | SMILES
3.2 nM | very high binding affinity | COc1cc2c(cc1OC)[C@H]1C[C@@H](OCCF)[C@H](CC(C)C)CN1CC2 [Compound 22]
6.4 nM | very high binding affinity | COc1cc2c(cc1OC)[C@H]1C[C@@H](OCCCF)[C@H](CC(C)C)CN1CC2 [Compound 23]
